According to patent US6979686B1, “Substituted pyrazoles as p38 kinase inhibitors” (Pharmacia Corporation, priority 2001, dated 2005):
Like-named read-outs stand apart in the source and are kept apart here. One block for each molecule: values may come before it.

Columns and labels:
human p38 kinase alpha = molecular target: T1, human p38 kinase alpha (Homo sapiens, UniProt Q16539); test: p38 kinase in vitro assay, phosphorylation of biotinylated PHAS-I with 32P-ATP; format: biochemical
T1 construct: GST (N, cleaved yes); made in house; host or cells: E. coli DH10B

[1] = test system: TNF-α, U937 human histiocytic lymphoma cell line; test: LPS stimulation of TNF production by U937 cells; format: cell-based; conditions: for inhibition at 1 µM: U-937, @ 1.0 uM, read-out: U937 Cell % inhib @ conc.
Outline: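 U937 cells differentiated 24 h with 20 ng/ml PMA, rested 24-48 h, used at 2 million cells/ml. Compounds in 0.1% DMSO final; LPS (E. coli, 100 ng/ml final) stimulation for 4 h at 37° C. Released TNF-α measured by ELISA; IC50 (μM).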

[2] = in vitro P38-alpha kinase inhibition, read-out: P38 alpha kinase IC50
[3] = in vitro P38-alpha kinase, read-out: P38 alpha kinase IC50
[4] = Homo sapiens, TNF production, LPS-stimulated U937 cells
[5] = Homo sapiens, TNF production, U937 cells stimulated with LPS
[6] = Homo sapiens, U-937, TNF production, human U937 cells stimulated with LPS, read-out: U937 Cell IC50
[7] = @ 10.0 uM, TNF production, LPS-stimulated U937 cells
[8] = @ 1.0 uM, TNF production, U937 cells stimulated with LPS
[9] = @ 1.0 uM, TNF production in human U937 cells stimulated with LPS

T1 sequence (Q16539 whole entry): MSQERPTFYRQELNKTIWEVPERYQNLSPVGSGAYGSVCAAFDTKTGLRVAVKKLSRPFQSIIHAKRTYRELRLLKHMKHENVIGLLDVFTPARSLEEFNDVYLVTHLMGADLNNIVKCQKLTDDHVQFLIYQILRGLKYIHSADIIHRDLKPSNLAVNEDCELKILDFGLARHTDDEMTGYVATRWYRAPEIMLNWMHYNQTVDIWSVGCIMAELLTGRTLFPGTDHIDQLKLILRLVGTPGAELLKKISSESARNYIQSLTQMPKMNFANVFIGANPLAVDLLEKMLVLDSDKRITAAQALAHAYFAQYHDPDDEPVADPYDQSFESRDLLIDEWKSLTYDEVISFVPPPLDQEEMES

Structure (SMILES): Cc1c(-c2ccncc2)c(-c2ccc(F)cc2)nn1CC(=O)N1CCCCC1CC1CCCN1C (mixture of isomers) [Example B-2388]
P38 alpha kinase IC50, uM or % inhib @ conc. (uM): % inhib (human p38 kinase alpha; @ 10.0 uM): 42.0% @
U937 Cell IC50, uM or % inhib @ conc. (uM): % inhib ([1]; @ 10.0 uM, TNF production, U937 cells stimulated with LPS): 24.0% @

Structure (SMILES): CN(C(=O)NC(Cc1ccccc1)c1[nH]nc(-c2ccc(F)cc2)c1-c1ccncc1)c1ccccc1 (centres unmarked) [Example B-0731]
IC50 (human p38 kinase alpha; [2]): 870 nM
IC50 ([1]; Homo sapiens, U-937, TNF production in human U937 cells stimulated with LPS, read-out: U937 Cell IC50): > 1 µM

Structure (SMILES): O=S(=O)(c1cccc(C(F)(F)F)c1)N1CCC(c2[nH]nc(-c3ccc(F)cc3)c2-c2ccncc2)CC1 [Example B-1468]
IC50 (human p38 kinase alpha; [3]): 1610 nM
inhibition at 1 µM [1, 4]: 10%

Structure (SMILES): CN(C)c1cccc2c(S(=O)(=O)NCCc3[nH]nc(-c4ccc(F)cc4)c3-c3ccncc3)cccc12 [Example B-1072]
IC50 (human p38 kinase alpha; [2]): 380 nM
inhibition at 1 µM [1, 5]: 28%

Structure (SMILES): CC(NC(=O)c1ccc(F)c(F)c1F)c1[nH]nc(-c2ccc(F)cc2)c1-c1ccncc1 (centres unmarked) [Example B-0546]
IC50 (human p38 kinase alpha; [2]): 1040 nM
inhibition at 1 µM ([1]; Homo sapiens, TNF production in human U937 cells stimulated with LPS): 18%

Structure (SMILES): O=C(NCCCc1[nH]nc(-c2ccc(F)cc2)c1-c1ccncc1)NC1CN2CCC1CC2 (centres unmarked) [Example B-1309]
IC50 (human p38 kinase alpha; [3]): 45 nM
IC50 [1, 6]: > 1 µM

Structure (SMILES): Cc1c(-c2ccncc2)c(-c2ccc(F)cc2)nn1CC(=O)NCCc1cccs1 [Example B-2279]
IC50 (human p38 kinase alpha; [3]): 320 nM
U937 Cell % inhib @ conc. [1, 7]: 36.0% @

Structure (SMILES): Cc1c(-c2ccncc2)c(-c2ccc(F)cc2)nn1CC(=O)N(C)CCCC1c2ccccc2CCc2ccccc21 [Example B-2387]
P38 alpha kinase IC50, uM or % inhib @ conc. (uM): % inhib (human p38 kinase alpha; @ 100.0 uM): 50.0% @
IC50 ([1]; TNF production, U937 cells stimulated with LPS, read-out: U937 Cell IC50, uM or % inhib @ conc. (uM): IC50): > 10 µM

Structure (SMILES): CNC(=O)CCC(NS(=O)(=O)Cc1ccccc1)c1[nH]nc(-c2ccc(F)cc2)c1-c1ccncc1 (centres unmarked) [Example B-0876]
IC50 (human p38 kinase alpha; [2]): 890 nM
IC50 [1, 6]: > 1 µM

Structure (SMILES): CC(NC(=O)c1ccc(C(F)(F)F)cc1)c1[nH]nc(-c2ccc(F)cc2)c1-c1ccncc1 (centres unmarked) [Example B-0704]
IC50 (human p38 kinase alpha; [2]): 2190 nM
U937 Cell % inhib @ conc. (uM) [1, 9]: 29.0% @

Structure (SMILES): COC(=O)C(C)NC(=O)Cn1nc(-c2ccc(F)cc2)c(-c2ccncc2)c1C (centres unmarked) [Example B-2363]
P38 alpha kinase % inhib @ conc. (human p38 kinase alpha; @ 10.0 uM): 44.0% @
U937 Cell % inhib @ conc. [1, 7]: 1.0% @

Structure (SMILES): Cc1[nH]nc(-c2ccc(F)c(F)c2)c1-c1ccncc1 [Example A-46]
IC50 (human p38 kinase alpha; activated human p38 kinase alpha, PHAS-I substrate, 50 μM unlabeled ATP, read-out: p38 kinase IC50): < 100 nM
IC50 ([1]; Table 5, LPS-stimulated U937 cells, TNF-α, read-out: U937 Cell Assay IC50): 0.329 µM

Structure (SMILES): Cc1ccc(C(=O)NC(Cc2ccccc2)c2[nH]nc(-c3ccc(F)cc3)c2-c2ccncc2)cc1 (centres unmarked) [Example B-0818]
IC50 (human p38 kinase alpha; [2]): 4970 nM
IC50 [1, 6]: > 1 µM

Structure (SMILES): O=C(NCc1[nH]nc(-c2ccc(F)cc2)c1-c1ccncc1)c1ccccc1C(F)(F)F [Example B-0016]
inhibition at 1 µM (human p38 kinase alpha; @ 1.0 uM, read-out: P38 alpha kinase % inhib @ conc.): 94%
IC50 [1, 6]: 3.98 µM

Structure (SMILES): O=C(NC(Cc1ccccc1)c1[nH]nc(-c2ccc(F)cc2)c1-c1ccncc1)C1CCCN1 (centres unmarked) [Example B-0795]
IC50 (human p38 kinase alpha; [2]): 1900 nM
U937 Cell % inhib @ conc. (uM) [1, 9]: 11.0% @

More lines, main results first:

IC50 (human p38 kinase alpha; [3]): < 100 nM
Structure (SMILES): Cc1ccc(C)c(S(=O)(=O)NCCCc2[nH]nc(-c3ccc(F)cc3)c2-c2ccncc2)c1 [Example B-1273]
inhibition at 1 µM [1, 4]: 36%

IC50 (human p38 kinase alpha; [3]): 240 nM
IC50 [1, 6]: > 1 µM
Structure (SMILES): O=C(NCCCc1[nH]nc(-c2ccc(F)cc2)c1-c1ccncc1)NCCCN1CCCC1=O [Example B-1319]

IC50 (human p38 kinase alpha; [2]): 180 nM
Structure (SMILES): CC(=O)Nc1ccc(S(=O)(=O)NCCc2[nH]nc(-c3ccc(F)cc3)c2-c2ccncc2)cc1 [Example B-1059]
inhibition at 1 µM [1, 5]: 24%

P38 alpha kinase % inhib @ conc. (uM) (human p38 kinase alpha; @ 1.0 uM): 82.0% @
Structure (SMILES): CCOC(=O)c1cccc(NC(=O)NCCc2[nH]nc(-c3ccc(F)cc3)c2-c2ccncc2)c1 [Example B-0942]
U937 Cell % inhib @ conc. (uM) [1, 8]: 2.0% @

IC50 (human p38 kinase alpha; [3]): 120 nM
Structure (SMILES): O=C(NCCCc1[nH]nc(-c2ccc(F)cc2)c1-c1ccncc1)NCc1cccnc1 [Example B-1310]
inhibition at 1 µM [1, 4]: 11%

IC50 (human p38 kinase alpha; [3]): 1310 nM
Structure (SMILES): O=C(NCc1[nH]nc(-c2ccc(F)cc2)c1-c1ccncc1)[C@@H]1CCCN1 [B0194]
U937 Cell % inhib @ conc. [1, 8]: 22% @

P38 alpha kinase % inhib @ conc. (uM) (human p38 kinase alpha; @ 1.0 uM): 66.0% @
IC50 ([1]; TNF production, human U937 cells stimulated with LPS, read-out: U937 Cell IC50): 0.99 µM
Structure (SMILES): O=C(NCCCc1[nH]nc(-c2ccc(F)cc2)c1-c1ccncc1)C1CCC1 [Example B-1165]

P38 alpha kinase % inhib @ conc. (uM) (human p38 kinase alpha; @ 1.0 uM): 85.0% @
Structure (SMILES): O=S(=O)(NCCc1[nH]nc(-c2ccc(F)cc2)c1-c1ccncc1)c1ccc(F)cc1 [Example B-1013]
U937 Cell % inhib @ conc. (uM) [1, 8]: 7.0% @

IC50 (human p38 kinase alpha; [3]): 10 nM
IC50 [1, 6]: 0.25 µM
Structure (SMILES): CCS(=O)(=O)N1CCC(c2[nH]nc(-c3ccc(F)cc3)c2-c2ccncc2)CC1 [Example B-1375]

IC50 (human p38 kinase alpha; [2]): 990 nM
Structure (SMILES): C[C@@H](NC(=O)[C@H]1CCCN1)c1[nH]nc(-c2ccc(F)cc2)c1-c1ccncc1 [Example B-0428]
U937 Cell % inhib @ conc. (uM) [1, 9]: 27.0% @
